Test results published in ChEMBL document CHEMBL1137425, “Design, synthesis and evaluation of novel uracil amino acid conjugates for the inhibition of Trypanosoma cruzi dUTPase” (Bioorg Med Chem Lett, 2006).

Assays:
Trypanosoma cruzi = assay: Antitrypanosomal activity against Trypanosoma cruzi; format: functional, organism-based
[1] = target: T1, Deoxyuridine triphosphatase (Trypanosoma cruzi (strain CL Brener), UniProt Q4DI50); assay: Inhibition of Trypanosoma cruzi dUTPase at 1 mM
T1 sequence (Q4DI50 whole entry): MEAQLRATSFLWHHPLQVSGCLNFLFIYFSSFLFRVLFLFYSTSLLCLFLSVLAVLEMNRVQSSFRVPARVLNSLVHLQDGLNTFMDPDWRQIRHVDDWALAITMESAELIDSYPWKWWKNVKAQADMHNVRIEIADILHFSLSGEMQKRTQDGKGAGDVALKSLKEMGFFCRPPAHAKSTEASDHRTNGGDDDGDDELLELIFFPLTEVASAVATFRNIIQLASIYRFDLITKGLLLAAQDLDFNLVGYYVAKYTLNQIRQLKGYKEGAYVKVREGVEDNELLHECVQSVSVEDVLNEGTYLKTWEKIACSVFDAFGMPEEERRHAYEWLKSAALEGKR

L6 = assay: Cytotoxicity against rat L6 cells; format: functional, cell-based

| SMILES | IC50 (Trypanosoma cruzi) [µM] | Ki [1] [mM] | IC50 (L6) [µM] |
| --- | --- | --- | --- |
| O=C(Cn1ccnc1[N+](=O)[O-])NCc1ccccc1 [BENZNIDAZOLE] | 1.04 |  |  |
| C[C@H](NC(=O)Cn1ccc(=O)[nH]c1=O)C(=O)NCC(=O)O | > 100 | > 1 | > 301 |
| O=C(Cn1ccc(=O)[nH]c1=O)NCC(=O)N[C@@H](Cc1ccc(O)cc1)C(=O)O | > 76 | > 1 | > 230 |
| C[C@H](NC(=O)Cn1ccc(=O)[nH]c1=O)C(=O)N[C@@H](CCC(N)=O)C(=O)O | > 81 | > 1 | > 243 |
| C[C@H](NC(=O)Cn1ccc(=O)[nH]c1=O)C(=O)N[C@@H](Cc1ccc(O)cc1)C(=O)O | > 74 | > 1 | 214 |
| C[C@H](NC(=O)Cn1ccc(=O)[nH]c1=O)C(=O)N[C@H](C(=O)O)[C@@H](C)O | > 87 | > 1 | > 262 |
| C[C@@H](O)[C@H](NC(=O)CNC(=O)Cn1ccc(=O)[nH]c1=O)C(=O)O | > 91 | > 1 | > 274 |
| O=C(O)CNC(=O)Cn1ccc(=O)[nH]c1=O | > 132 | > 1 | > 396 |
| C[C@H](NC(=O)Cn1ccc(=O)[nH]c1=O)C(=O)N[C@@H](CCCCN)C(=O)O | > 81 | > 1 | > 243 |
| C[C@H](NC(=O)Cn1ccc(=O)[nH]c1=O)C(=O)N[C@@H](CCC(=O)O)C(=O)O | > 81 | > 1 | 210 |
| COc1cc([C@@H]2c3cc4c(cc3[C@H](O)[C@H]3COC(=O)[C@H]23)OCO4)cc(OC)c1OC [PODOFILOX] |  |  | 0.15 |
| O=c1ccn([C@H]2C[C@H](O)[C@@H](COP(=O)(O)O)O2)c(=O)[nH]1 [DEOXYURIDINE MONOPHOSPHATE] |  | 0.0184 |  |
| NCCCC[C@H](NC(=O)CNC(=O)Cn1ccc(=O)[nH]c1=O)C(=O)O | > 84 | > 1 | > 253 |
| C[C@H](NC(=O)Cn1ccc(=O)[nH]c1=O)C(=O)N[C@@H](CC(=O)O)C(=O)O | > 84 | > 1 | > 252 |
